Results: patent US9920063B2, “Melampomagnolide B derivatives” (Board of Trustees of the University of Arkansas, priority 2013, dated 2018)
Where two headings read alike, the source gives them in different places.

SMILES: C=C1C(=O)O[C@H]2[C@H]1CC/C(COC(=O)c1cc3ccccc3[nH]1)=C\CC[C@@]1(C)O[C@@H]21 [BS-1-28]
- CC50 (HCT-15): 2430 nM
- Percent Growth (HCT-15; HCT-15, Log10 Concentration −4.0): −82%
- Percent Growth (HCT-15; HCT-15, Log10 Concentration −5.0): −64%
- Percent Growth (HCT-15; HCT-15, Log10 Concentration −6.0): −41%
- Percent Growth (HCT-15; HCT-15, Log10 Concentration −7.0): 94%
- Percent Growth (HCT-15; HCT-15, Log10 Concentration −8.0): 93%
- GI50 (HCT-15; HCT-15, NCI five dose): 211 nM
- TGI (HCT-15; HCT-15, NCI five dose): 4.95E−7
- CC50 (U251): 8680 nM
- Percent Growth (U251; U251, Log10 Concentration −4.0): −74%
- Percent Growth (U251; U251, Log10 Concentration −5.0): −59%
- Percent Growth (U251; U251, Log10 Concentration −6.0): 92%
- Percent Growth (U251; U251, Log10 Concentration −7.0): 96%
- Percent Growth (U251; U251, Log10 Concentration −8.0): 98%
- GI50 (U251; U251, NCI five dose): 1690 nM
- TGI (U251; U251, NCI five dose): 4.06E−6
- CC50 (ACHN): 4220 nM
- Percent Growth (ACHN; ACHN, Log10 Concentration −4.0): −95%
- Percent Growth (ACHN; ACHN, Log10 Concentration −5.0): −91%
- Percent Growth (ACHN; ACHN, Log10 Concentration −6.0): 19%
- Percent Growth (ACHN; ACHN, Log10 Concentration −7.0): 55%
- Percent Growth (ACHN; ACHN, Log10 Concentration −8.0): 76%
- GI50 (ACHN; ACHN, NCI five dose): 342 nM
- TGI (ACHN; ACHN, NCI five dose): 1.49E−6
- CC50 (CAKI-1): 4820 nM
- Percent Growth (CAKI-1; CAKI-1, Log10 Concentration −4.0): −100%
- Percent Growth (CAKI-1; CAKI-1, Log10 Concentration −5.0): −99%
- Percent Growth (CAKI-1; CAKI-1, Log10 Concentration −6.0): 55%
- Percent Growth (CAKI-1; CAKI-1, Log10 Concentration −7.0): 90%
- Percent Growth (CAKI-1; CAKI-1, Log10 Concentration −8.0): 86%
- GI50 (CAKI-1; CAKI-1, NCI five dose): 1080 nM
- TGI (CAKI-1; CAKI-1, NCI five dose): 2.18E−6
- CC50 (SN12C): 90500 nM
- Percent Growth (SN12C; SN12C, Log10 Concentration −4.0): −59%
- Percent Growth (SN12C; SN12C, Log10 Concentration −5.0): −35%
- Percent Growth (SN12C; SN12C, Log10 Concentration −6.0): 77%
- Percent Growth (SN12C; SN12C, Log10 Concentration −7.0): 71%
- Percent Growth (SN12C; SN12C, Log10 Concentration −8.0): 60%
- GI50 (SN12C; SN12C, NCI five dose): 1140 nM
- TGI (SN12C; SN12C, NCI five dose): 4.83E−6
